Marks after values point to notes of the source that are not given here.
What was measured:
bacterial spores = experiment: Fabric swatches (ASTM E2274-09 protocol), simultaneous treatment (Example 5); format: cell-based; conditions: TABLE 7, exposure 10 minutes
Procedure: (§1) Various ether amines were tested for their efficiency in eradicating bacterial spores from fabric swatches. The fabric swatches were treated according to ASTM protocol for evaluating laundry sanitizers and disinfectants (ASTM E2274-09). The ASTM protocol provides more realistic conditions for laundering textiles, where the tested textiles are imbedded within a bundle of fabrics to mimic the ability of the composition to penetrate the fabric with less exposure to the wash solution.
Three different ether amine solutions were tested: DA-1214 (octyl/decyloxypropyl-1,3-diaminopropane), DA-1618 (dodecylketradecyloxypropyl-1,3-diaminopropane), and PA-14 (isodecyloxypropyl amine). Part I and Part II were both added together at the start of the experiment for a combined exposure time of 10 minutes. The solutions were made into deionized water as described in Example 1, with the pH adjusted to 9.0 by glycolic acid. However, PA-14 was already neutralized to pH 7 with sodium acetate. The log reduction of spores was measured in the wash solution and on the fabric swatch. The reduction of spores was compared to number of spores in the baseline treatment (water only).

spores [1] = experiment: Peracid comparison, ASTM test on fabric swatches (Example 7); format: cell-based; conditions: TABLE 9; peracid 200 ppm alone; 10 min at 50° C.
Procedure: as §1
The use of different peracids was tested. Fabric swatches were treated using the ASTM test described in Example 5. Part I was prepared with 100 ppm ether amine (DA-1618). Part II was prepared with 200 ppm of peroxyacetic acid (“POAA”) or peroxyoctanoic acid (“POOA”). When both Part I and Part II were used, the chemicals were added simultaneously. The exposure time was 10 min at 50° C.

C. Diff. AATCC 43598 [2] = experiment: Fabric swatches, consecutive treatment, spore log reduction (Example 1); format: cell-based, Clostridium difficile; conditions: ether amine 0 ppm 10 min, 50° C.
Procedure: Aqueous solutions of ether amine (Part I) and peracid (Part II) were prepared. Ether amine (octyl/decyloxypropyl-1,3-diaminopropane) solution (Part I) was prepared in deionized water and the pH was adjust to 9.0 using glycolic acid. TOMAMINE DA1214 was used as the ether amine. TOMAMINE DA1214 contains about 50-60% by weight of 1,3-Propanediamine, N-[3-(octylocy)propyl] and about 35-40% by weight of 1,3-Propanediamine, N-[3-(decylocy)propyl], and is available from Air Products and Chemicals, Inc., in Allentown, Pa. Peracid (peracetic acid) solution (Part II) was prepared from TSUNAMI° 100 (15 peracetic acid), available from Ecolab Inc., in St Paul, Minn.
(§2) Cotton fabric swatches (5 mm×5 mm) were inoculated with C. Diff. AATCC 43598 at 35° C. for 48 hours. After inoculation, the swatches were treated with a first solution comprising part I of the composition at 50° C. for a first exposure time; removed from the first solution with sterile forceps and immediately transferred into a second solution comprising part II of the composition for a second exposure time. In comparative treatments, the solutions included only water. After treatment, the number of surviving spores was evaluated, and the log reduction of spores was compared to the comparative treatment (water only).
In Example 1, the first exposure time was 10 minutes (Part I) and the second exposure time was 5 minutes (Part II).

C. Diff. AATCC 43598 [3] = experiment: Glass surface, consecutive treatment (Example 2); format: cell-based, Clostridium difficile; conditions: TABLE 4A, glass squares, ether amine 0 ppm 10 min
Procedure: as §2
(§3) The treatment described above for Example 1 was applied to glass squares (5 mm×5 mm) in a first part of the experiment, where the first exposure time was 10 minutes (part I) and the second exposure time was 5 minutes (part II). In a second part of the experiment, the ether amine and peracid were mixed together prior to treatment, and the exposure time was 15 minutes. Results of the first part of the experiment are shown in TABLE 4A, and of the second part of the experiment in TABLE 4B.

C. Diff. AATCC 43598 [4] = experiment: Glass surface, room temperature (Example 3); format: cell-based, Clostridium difficile; conditions: TABLE 5, room temperature (approximately 23° C.), ether amine 0 ppm 10 min, peracid 1000 ppm 5 min
Procedure: as §2, §3
The treatment described in Example 2 was repeated at room temperature (“RT,” approximately 23° C.). Part I was prepared with ether amine DA-1214 and Part II with peroxyacetic acid. The exposure times were 10 min for Part I and 5 min for Part II.

C. Diff. AATCC 43598 [5] = experiment: Fabric swatches, consecutive vs. simultaneous treatment (Example 4); format: cell-based, Clostridium difficile; conditions: TABLE 6, ether amine 0 ppm 10 min, peracid 300 ppm 5 minutes
Procedure: as §2
Consecutive and simultaneous treatment with low concentration (100 ppm) of ether amine and peracetic acid was tested on fabric squares. The fabric squares were treated as in Example 1 with treatment times of 10 min (part I) and 5 minutes (part II), except with the simultaneous treatment, where ether amine and peracid were mixed prior to treatment and the exposure time was 5 minutes.

spores [6] = experiment: Fabric swatches (ASTM E2274), simultaneous treatment, hard water (Example 6); format: cell-based; conditions: TABLE 8; 500 ppm synthetic hard water, pH 10.5 prior to peracid addition; ether amine 0 ppm, peracid 200 ppm; 10 minutes
Procedure: as §1
Treatment of fabric swatches was tested in pH-adjusted hard water. The wash solution contained 500 ppm synthetic hard water, and the pH was adjusted to 10.5 with NaOH prior to peracid addition. After the addition of the peracid, pH of the wash solution was between 7-8. DA-1214 was used as the ether amine and peracetic acid as the peracid.
The log reduction of spores was measured in the wash solution and on the fabric swatch. The reduction of spores was compared to number of spores in the baseline treatment (water only). The combined treatment time was 10 minutes.

[7] = ether amine 100 ppm, peracid 0 ppm
[8] = TABLE 3A, then peracid 300 ppm 5 min
[9] = TABLE 3A, then peracid 500 ppm 5 min
[10] = TABLE 3C, then peracid 300 ppm 5 min
[11] = ether amine 0 ppm, peracid 200 ppm

## CC(C)CCCCCCCOCCCN [PA-14, isodecyloxypropyl amine]
Bacterial spores; [7]
  Fabric Swatch Log Reduction: 0.07
  Wash Solution Log Reduction: 0.17

## CCCCCCCC(=O)OO [POOA, peroxyoctanoic acid]
Spores [1]
  Carrier log reduction: 5.35
  Wash Solution Log Reduction: 6.00*

## CC(=O)OO [peracid, peracetic acid]
C. Diff. AATCC 43598 [2]; [8]
  Average Log: 5.36
  Average Survivors: 2.3 × 10^5
  Log Reduction: 1.02
C. Diff. AATCC 43598 [2]; [9]
  Average Log: 3.23
  Average Survivors: 1.7 × 10^3
  Log Reduction: 3.15
C. Diff. AATCC 43598 [2]; [10]
  Average Log: 5.04
  Average Survivors: 1.1 × 10^5
  Log Reduction: 0.69
C. Diff. AATCC 43598 [3]; then peracid 300 ppm 5 min
  Average Log: 5.30
  Average Survivors: 2.0 × 10^5
  Log Reduction: 1.36
C. Diff. AATCC 43598 [3]; then peracid 500 ppm 5 min
  Average Log: 3.38
  Average Survivors: 2.4 × 10^3
  Log Reduction: 3.28
C. Diff. AATCC 43598 [4]
  Average Log: >5.48
  Average Survivors: >300 × 10^3
  Log Reduction: <1.32
C. Diff. AATCC 43598 [5]
  Log Reduction: 0.85
Bacterial spores; [11]
  Fabric Swatch Log Reduction: 2.65
  Wash Solution Log Reduction: 5.33
Spores [6]
  Fabric Swatch Log Reduction: 3.01
  Wash Solution Log Reduction: 5.30
Spores [1]
  Carrier log reduction: 1.78
  Wash Solution Log Reduction: 4.40
